Series [1] deals with rat primary cortical neurons. Kind of series: Cytotoxicity in rat primary cortical neurons, LDH release at 24 h. As to conditions: for concentration at which neurotoxicity (defined as >10% cell death) was seen: n=6/group. As to the method:
Cytotoxicity was assessed by LDH release from dying neurons at 24 h.
In general terms: LDH leaks from cells whose membrane has failed.

Series [2] has as its system primary cortical neurons. The series can be described thus: Oxygen-glucose deprivation (OGD) in primary cortical neurons, LDH release. The class given is cell-based, rat. As to the method:
(§1) To model ischemia-reperfusion in vitro, culture medium was replaced with a pre-equilibrated low glucose (0.5 mM) medium. Neurons were transferred into a sealed hypoxic chamber (Coy Laboratory Products Inc., Grass Lake, Mich.) set to an atmosphere of 95% N2 with 5% CO2 at 37° C. for 2 h. After OGD neurons were removed from the chamber and returned to the incubator.
To determine whether mitochondria-targeting XJB-veliparib can promote neuronal survival in ischemia-like conditions in vitro, primary cortical neurons at 12 DIV were subjected to OGD. Cultured neurons were exposed to a hypoxic and glucose-depleted environment for 2 h, followed by normal culture conditions for 24 h to mimic ischemia/reperfusion injury. […] Specifically, 10 nM XJB-veliparib reduced cell death by 67% (LDH release 12.4±3.1% vs. 38.0±2.5%, 10 nM XJB-veliparib vs. vehicle; mean±SD; P<0.05).

The test system of a further series is HT22 cells. Kind of series: Glutamate-induced ferroptotic cell death in HT22 cells, LDH release. Type of series: cell-based, mouse. Particulars: 5 mM glutamate; for effect on glutamate-induced ferroptosis: LDH release at 24 h. As to the method: HT22 cells were cultured at 37° C. in Dulbecco's modified Eagle's medium (DMEM) (Invitrogen Inc., Carlsbad, Calif.) supplemented with 10% fetal bovine serum (FBS) (Thermo Fisher Scientific, San Jose, Calif.) and 1% penicillin-streptomycin (ATCC, Manassas, Va.) in an atmosphere containing 5% CO2. Cells were cultured for 24 to 48 hr before use.

For series [3], the system named is primary cortical neurons. Kind of series: Mitochondrial and cytosolic NAD+ concentration in primary cortical neurons after OGD. Type of series: cell-based, rat. As to conditions: for mitochondrial NAD+ stores after OGD: 10 nM before OGD, measured 24 h after OGD. As to the method: FIG. 8. Mitochondrial and cytosolic NAD^+ concentration in primary cortical neurons after OGD. […] NAD+ concentration measured 24 h after OGD. Assay performed in duplicate.
as §1

The test system of series [4] is primary cortical neurons. The series can be described thus: Cellular localization of poly(ADP-ribose) polymers after OGD (immunofluorescence, confocal and STED microscopy). The class given is cell-based, rat. As to conditions: 10 nM, OGD 2 h; for PAR immunofluorescence after OGD (confocal): triplicate. As to the method:
Neurons grown on poly-D-lysine coated glass coverslips were fixed in 2% paraformaldehyde and permeabilized with TritonX-100. Coverslips were then incubated in a 1:200 dilution of mouse monoclonal antibody against PAR (SA216, ENzo Life Sciences, Inc., Farmingdale, N.Y.) and an antibody against TOMM20 (Abcam, Cambridge, Mass.) followed by incubation in the appropriate secondary antibodies. Cell nuclei were labelled with 4′,6 diamidino-2-phenylindole (DAPI) for standard confocal microscopy or DRAQ5 (both from ThermoFisher Scientific, Waltham, Mass.) for STED microscopy. Images were collected using an Olympus Fluoview 1000 confocal microscope (Olympus Corporation of the Americas, Center Valley, Pa.).
For STED imaging a Leica TCS SP8 super resolution STED microscope with a pulsed white light laser and AOBS detection system was used (Leica Microsystems, Wetzlar, Germany). Images were collected using the 775 nm STED laser line with 30% 3D STED using the Leica STED WHITE oil objective lens (HC PL APO 100×/1.40 OIL) with a 200 Hz scan speed and 2× line averaging. Pixel size was set to 45 nm/pixel, step size was set to […], and pinhole was set at 132.8 μm (0.875 AU). TOMM20 was visualized using Alexa Fluor 555, exciting at 553 nm and detecting between 558-599 nm and temporally gate between […]. PAR was visualized with Alexa Fluor 594, exciting at 598 nm and detecting between 603-666 nm and temporally gated between 0.3-6.0 nsec. DRAQ5 (ThermoFisher Scientific, Waltham, Mass.) was excited at 662 and detected between 667 to 780 nm and temporally gated between 0.3-6.0 nsec. Channels were collected between stacks, sequentially.
The cellular localization of poly(ADP-ribose) (PAR) polymers, a footprint of PARP activation, was examined in primary cortical neurons after OGD using immunohistochemistry and confocal microscopy.
To evaluate the impact of XJB-veliparib on mitochondrial structure after OGD, we used stimulation emission depletion (STED) microscopy and immunohistochemistry. Primary rat cortical neurons were treated with 10 nM XJB-veliparib or vehicle and then exposed to OGD for 2 h.

Series [5] deals with mouse embryo fibroblasts (MEF). Kind of series: IR-induced cell death in mouse embryo fibroblasts, Annexin V/PI flow cytometry. The class given is cell-based. Particulars: for survival after IR: 10, 20 μM for 30 min prior to 10 Gy IR, survival at 48 h, mean±SD, vehicle 68.4%±2.2. As to the method:
MEF cells were treated with 10, 20 μM XJB-veliparib for 30 min prior to 10 Gy IR (309 R/min, Cs137 source), media was changed to drugless media 4 h post-IR. Survival was assessed at 48 h by Annexin V-FTIC/PI flow cytometry. […] Mean±SD, *p<0.05, ****p<0.0001.

In series [6] the test system is mouse embryo fibroblasts (MEF). The series can be described thus: γ-irradiation-induced mitochondrial DNA damage in MEFs (qPCR). As to conditions: 20 μM for 30 min prior to 10 Gy IR. Type of series: cell-based. As to the method:
PARylation of mtDNA repair enzymes, polymerase-γ and exo/endonucleaseG, by mt-PARP1 is thought interfere with normal mtDNA repair. […] Cells were harvested and DNA extracted 4 and 24 h post-IR. […] ANOVA, *p<0.05, **p<0.01.

Series [7] concerns the target T1, PARP1 (Homo sapiens, UniProt P09874). The series can be described thus: PARP1 activity, commercial assay (Trevigen), histone-coated wells with active PARP1 enzyme and NAD+. As to conditions: active PARP1 enzyme; triplicate; FIG. 4. The class given is biochemical. As to the method: The capacity to inhibit PARP1 was determined using a commercial assay (Trevigen, Gaithersburg, Md.) as per manufacturer's direction.

Series [8] can be described thus: Mitochondrial enrichment: LC-MS quantification in mitochondria- and nuclear-enriched fractions of neurons. Type of series: in vitro ADME, rat. As to conditions: neurons exposed to 100 nM for 24 h; mean±SD; n=3. As to the method: Water (150 μL) was added and the solution was vortexed (15 sec) and set aside to equilibrate at room temperature (30 min). The resulting suspension was placed in an Eppendorf Centrifuge 5702 (4400 rpm, 20° C.) for 12 min. The organic layer was extracted and filtered through a 0.45 μm filter for analysis.
The concentration was reported as pM concentration of XJB-Veliparib per 10 μg of protein with corresponding standard deviation values.
To verify mitochondrial enrichment, rat primary cortical neurons were exposed to 100 nM XJB-veliparib for 24 h. Mitochondria- and nuclear-enriched subcellular fractions were obtained and verified by western blot using antibodies against the cytochrome oxidase subunit Vα (COX Vα) and histone H3, respectively (FIG. 6A). In mitochondria-enriched fractions, the LCMS analysis of XJB-veliparib indicated a concentration of 116±55 pmol/10 μg protein compared with 29±27 pmol/10 μg protein in nuclear-enriched fractions (FIG. 6B; mean±standard deviation [SD]; n=3 independent experiments).

Series [9] deals with T1, PARP1. Kind of series: PARP1 inhibitory capacity of mitochondria-enriched fractions spiked with active PARP1 enzyme. As to conditions: triplicate. The class given is biochemical.

T1 sequence (P09874 whole entry): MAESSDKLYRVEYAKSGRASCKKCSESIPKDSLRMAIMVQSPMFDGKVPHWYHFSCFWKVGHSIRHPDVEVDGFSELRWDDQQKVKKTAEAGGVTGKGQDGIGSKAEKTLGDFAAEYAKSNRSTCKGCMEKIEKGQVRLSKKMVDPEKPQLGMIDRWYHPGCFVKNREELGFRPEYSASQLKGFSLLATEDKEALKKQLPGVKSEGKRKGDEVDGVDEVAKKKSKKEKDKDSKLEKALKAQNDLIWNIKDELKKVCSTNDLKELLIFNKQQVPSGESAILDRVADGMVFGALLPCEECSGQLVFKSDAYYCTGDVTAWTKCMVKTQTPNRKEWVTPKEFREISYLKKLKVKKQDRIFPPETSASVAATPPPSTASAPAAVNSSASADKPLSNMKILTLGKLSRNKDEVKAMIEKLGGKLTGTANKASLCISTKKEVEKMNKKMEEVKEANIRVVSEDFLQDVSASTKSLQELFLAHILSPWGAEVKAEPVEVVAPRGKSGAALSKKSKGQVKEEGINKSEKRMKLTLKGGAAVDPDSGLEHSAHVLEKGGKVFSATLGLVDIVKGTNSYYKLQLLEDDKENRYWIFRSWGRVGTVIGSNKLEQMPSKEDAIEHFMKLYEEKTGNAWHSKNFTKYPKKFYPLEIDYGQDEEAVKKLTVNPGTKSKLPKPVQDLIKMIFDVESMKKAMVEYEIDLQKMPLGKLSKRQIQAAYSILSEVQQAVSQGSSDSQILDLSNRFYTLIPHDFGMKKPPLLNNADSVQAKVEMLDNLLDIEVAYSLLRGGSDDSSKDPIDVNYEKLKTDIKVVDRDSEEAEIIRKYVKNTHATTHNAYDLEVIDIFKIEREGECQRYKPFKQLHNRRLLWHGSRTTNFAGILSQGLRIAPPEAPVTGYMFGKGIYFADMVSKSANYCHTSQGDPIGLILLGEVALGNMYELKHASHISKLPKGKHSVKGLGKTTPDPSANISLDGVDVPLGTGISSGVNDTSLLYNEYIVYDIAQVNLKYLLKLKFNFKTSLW

With `CC1(c2nc3c(C(N)=O)cccc3[nH]2)CCCN1` (stereo in doubt) [veliparib, 1,2-[(S)-2-methylpyrrolidin-2-yl]-1H-benzimidazole-4-carboxamide, reference compound], in series [1], the “concentration at which neurotoxicity (defined as >10% cell death) was seen” value was 1 µM. For the same compound, in the series with primary cortical neurons [2], the “protection against OGD at concentrations >100 nM” value is on record as “no additional protection”. The “effect on glutamate-induced ferroptosis” value in the series with HT22 cells is “inhibit glutamate-induced ferroptosis”. Besides, the “mitochondrial NAD+ stores after OGD” value with primary cortical neurons [3] was “preserve mitochondrial NAD^+ stores”. Besides, the “PAR immunofluorescence after OGD (confocal)” value in the series with primary cortical neurons [4] is “reduction of PAR immunofluorescence”. For the same compound, the “survival after IR” value in series [5] amounted to 57.1%. In addition, the “effect on mtDNA lesions compared to vehicle irradiated cells” value in [6] is “no effect”.
`CC(C)C[C@@H](/C=C/[C@H](Cc1ccccc1)C(=O)N1CCC[C@H]1C(=O)N[C@H](C(=O)N[C@@H](CCCNC(=O)OCc1ccccc1)C(=O)NCCCNC(=O)c1cccc2[nH]c([C@]3(C)CCCN3)nc12)C(C)C)NC(=O)OC(C)(C)C` [XJB-Veliparib, tert-Butyl ((4S,7S, E)-7-benzyl-2-methyl-8-((S)-2-(((S)-3-methyl-1-(((S)-15-(2-((S)-2-methylpyrrolidin-2-yl)-1H-benzo[d]imidazol-4-yl)-3,9,15-trioxo-1-phenyl-2-oxa-4, 10,14-triazapentadecan-8-yl)amino)-1-oxobutan-2-yl)carbamoyl)pyrrolidin-1-yl)-8-oxooct-5-en-4-yl)carbamate]: at PARP1 [7], the “PARP1 inhibition compared with untargeted veliparib” value is reported as “similar”. The “cytotoxicity compared with unconjugated veliparib” value in series [1] (P<0.05) is recorded as “significantly less toxic”. In series [1], the “concentration at which neurotoxicity (defined as >10% cell death) was seen” value is 10 µM. For the same compound, in series [8], the “concentration in mitochondria-enriched fractions” value worked out at 116±55 pmol/10 μg protein and the “concentration in nuclear-enriched fractions” value was 29±27 pmol/10 μg protein. Further, the “PARP1 inhibitory capacity of mitochondria-enriched fractions compared to unconjugated veliparib” value on PARP1 [9] was “greater PARP1 inhibitory capacity”. In the series with primary cortical neurons [2] (10 nM, 2 h OGD, then 24 h, mean±SD, vehicle 38.0±2.5%), the “LDH release after OGD” value is listed as 12.4±3.1%. For the same compound, the “reduction of OGD-induced cell death vs. vehicle” value in the series with primary cortical neurons [2] (10 nM, 2 h OGD, then 24 h normal culture) amounted to 67%. Also, the “effect on OGD-induced cell death at low nanomolar concentrations” value with primary cortical neurons [2] (2 h OGD, then 24 h) is “significantly attenuated OGD-induced cell death”. The “protection against OGD at concentrations >100 nM” value in the series on primary cortical neurons [2] is “no additional protection”. Also, the “efficacy vs. veliparib at higher concentrations” value with HT22 cells (10 μM, LDH at 24 h) is “slightly more effective than veliparib”. Also, the “effect on glutamate-induced ferroptosis” value in the series with HT22 cells is given as “inhibit glutamate-induced ferroptosis”. The “mitochondrial NAD+ stores after OGD” value with primary cortical neurons [3] is reported as “preserve mitochondrial NAD^+ stores”. Further, the “efflux of NAD+ from the mitochondria to the cytosol” value in the series on primary cortical neurons [3] (10 nM, 24 h after OGD) is on record as “prevented efflux of NAD^+ from the mitochondria to the cytosol”. In the series with primary cortical neurons [4], the “mitochondrial architecture after OGD (STED)” value is given as “partially preserved” and the “PAR immunofluorescence after OGD (confocal)” value is reported as “reduction of PAR immunofluorescence”. Further, the “PAR immunoreactivity after OGD vs. vehicle (STED)” value with primary cortical neurons [4] (1 h) was “reduced”. Besides, in series [5], the “concentration at which radiation damage was decreased” value is at least 5 µM and the “survival after IR” value is 90.1%. In series [6] (DNA extracted 4 and 24 h post-IR, vehicle 0.48±0.03), the “number of PCR-detectable mtDNA lesions following γ-IR” value is 0.30±0.03.

For the origin of these results see patent US11090389B2, “Mitochondrially targeted PARP inhibitor, and uses thereof” (University of Pittsburgh—Of the Commonwealth System of …, priority 2016, dated 2021).
